Measurements as given in the supplement of paper PMC10307832.

How the values were obtained:
Assay in all cases: relative viability (nuclei count vs DMSO), 5 days (fraction); higher = more cells survive
EHT 1864 = compound: C1COCCN1CC2=CC(=O)C(=CO2)OCCCCCSC3=C4C=CC(=CC4=NC=C3)C(F)(F)F [EHT 1864]
How it was run: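 Following overnight incubation at 37 °C, lung cancer cell lines in 1536-well plates were pinned with five library-drug doses (not always all listed) in √10 steps on vehicle-anchored plates. The cells then spent 5 days without medium change before a combined fix, permeabilisation and Hoechst stain, 4× imaging and MetaXpress nuclear counts. Viability is the treated-to-vehicle ratio of nuclei, taken as the median across plates. Only plates with control CV below 25% and at least one doubling passed.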

EHT 1864 + Trametinib = compound: C1COCCN1CC2=CC(=O)C(=CO2)OCCCCCSC3=C4C=CC(=CC4=NC=C3)C(F)(F)F [EHT 1864] + CC(=O)Nc1cccc(-n2c(=O)n(C3CC3)c(=O)c3c(Nc4ccc(I)cc4F)n(C)c(=O)c(C)c32)c1 [Trametinib] (partner 0.02 µM)
How it was run: (§1)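 Relative viability was taken as the ratio of nuclei in treated wells to nuclei in vehicle wells. Lung cancer cell lines in 1536-well plates received compounds by pin tool one day after seeding, either one drug alone or a fixed anchor-drug dose plus five library-drug doses (not always all listed) in √10 steps. Nuclei were counted on 4× images after 5 days of treatment, and values are medians of duplicate plates.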

EHT 1864 + OSI-027 = compound: C1COCCN1CC2=CC(=O)C(=CO2)OCCCCCSC3=C4C=CC(=CC4=NC=C3)C(F)(F)F [EHT 1864] + COc1cccc2cc(-c3nc([C@H]4CC[C@H](C(=O)O)CC4)n4ncnc(N)c34)[nH]c12 [OSI-027] (partner 0.5 µM)
How it was run: as §1

EHT 1864 + Phenformin = compound: C1COCCN1CC2=CC(=O)C(=CO2)OCCCCCSC3=C4C=CC(=CC4=NC=C3)C(F)(F)F [EHT 1864] + N=C(N)NC(=N)NCCc1ccccc1 [Phenformin] (partner 250 µM)
How it was run: as §1

| Cell Line | relative viability (EHT 1864; 0.04 µM) | relative viability (EHT 1864; 0.1265 µM) | relative viability (EHT 1864; 0.4 µM) | relative viability (EHT 1864; 1.265 µM) | relative viability (EHT 1864; 4 µM) | relative viability (EHT 1864 + Trametinib; first compound 0.04 µM) | relative viability (EHT 1864 + Trametinib; first compound 0.1265 µM) | relative viability (EHT 1864 + Trametinib; first compound 0.4 µM) | relative viability (EHT 1864 + Trametinib; first compound 1.265 µM) | relative viability (EHT 1864 + Trametinib; first compound 4 µM) | relative viability (EHT 1864 + OSI-027; first compound 0.04 µM) | relative viability (EHT 1864 + OSI-027; first compound 0.1265 µM) | relative viability (EHT 1864 + OSI-027; first compound 0.4 µM) | relative viability (EHT 1864 + OSI-027; first compound 1.265 µM) | relative viability (EHT 1864 + OSI-027; first compound 4 µM) | relative viability (EHT 1864 + Phenformin; first compound 0.04 µM) | relative viability (EHT 1864 + Phenformin; first compound 0.1265 µM) | relative viability (EHT 1864 + Phenformin; first compound 0.4 µM) | relative viability (EHT 1864 + Phenformin; first compound 1.265 µM) | relative viability (EHT 1864 + Phenformin; first compound 4 µM) |
| --- | --- | --- | --- | --- | --- | --- | --- | --- | --- | --- | --- | --- | --- | --- | --- | --- | --- | --- | --- | --- |
| HCC-78 | 0.968 | 0.907 | 0.923 | 0.922 | 1.13 | 0.633 | 0.66 | 0.842 | 0.645 | 0.777 | 0.373 | 0.337 | 0.305 | 0.37 | 0.375 | 0.635 | 0.604 | 0.694 | 0.746 | 0.733 |
| HCC-366 | 1.01 | 0.804 | 1.01 | 1.07 | 1.06 | 0.38 | 0.3 | 0.318 | 0.413 | 0.285 | 0.805 | 0.603 | 0.939 | 0.872 | 0.935 | 0.616 | 0.538 | 0.593 | 0.511 | 0.585 |
| HCC-827 | 1.03 | 0.821 | 1.07 | 0.99 | 1.02 | 0.618 | 0.611 | 0.597 | 0.555 | 0.548 | 0.733 | 0.646 | 0.732 | 0.7 | 0.657 | 0.407 | 0.347 | 0.396 | 0.432 | 0.329 |
| HOP-62 | 1.05 | – | 1 | 1.04 | 1.07 | 0.4 | – | 0.362 | 0.38 | 0.415 | 0.783 | – | 0.851 | 0.825 | 0.907 | 0.665 | – | 0.615 | 0.654 | 0.718 |
| IA-LM | 0.925 | – | 0.908 | 0.764 | 0.855 | – | – | – | – | – | – | – | – | – | – | – | – | – | – | – |
| LC-2-ad | 0.966 | 0.716 | 1.03 | 0.946 | 0.934 | 0.91 | 0.816 | 0.895 | 0.868 | 0.79 | 0.808 | – | 1 | 0.98 | 0.788 | 0.574 | – | 0.632 | 0.64 | 0.696 |
| LCLC-97TM1 | 1.01 | 0.762 | 1.01 | 0.881 | 0.903 | 0.2 | 0.178 | 0.193 | 0.183 | 0.236 | 0.429 | 0.583 | 0.339 | 0.568 | 0.517 | 0.424 | 0.364 | 0.444 | 0.415 | 0.414 |
| LCLC-103H | 0.987 | 0.903 | 1.01 | 1.12 | 1.02 | 0.701 | 0.612 | 0.655 | 0.588 | 0.55 | 0.454 | 0.365 | 0.461 | 0.44 | 0.413 | 0.356 | 0.271 | 0.357 | 0.33 | 0.391 |
| LK-2 | 1.04 | 0.793 | 0.979 | 1.04 | 0.929 | 0.673 | 0.48 | 0.719 | 0.596 | 1.02 | 0.243 | 0.154 | 0.227 | 0.188 | 0.187 | 0.539 | – | 0.591 | 0.369 | 0.373 |
| LOU-NH91 | 0.973 | 0.909 | 1.05 | 1.04 | 0.892 | 0.757 | 0.747 | 0.802 | 0.761 | 0.74 | 0.721 | 0.572 | 0.768 | 0.777 | 0.66 | 0.783 | 0.635 | 0.859 | 0.738 | 0.66 |
| LU99A | 0.883 | 0.758 | 0.968 | 1 | 0.893 | 0.531 | 0.428 | 0.487 | 0.452 | 0.565 | 0.354 | 0.212 | 0.327 | 0.29 | 0.278 | 0.811 | 0.557 | 0.821 | 0.857 | 0.808 |
| LXF-289 | 0.961 | 0.932 | 0.95 | 0.961 | 0.886 | 0.676 | 0.609 | 0.615 | 0.616 | 0.657 | 0.848 | 0.738 | 0.769 | 0.775 | 0.713 | 0.517 | 0.463 | 0.507 | 0.549 | 0.547 |
| NCI-H23 | 0.909 | 0.696 | 0.912 | 1.02 | 1.03 | 0.347 | 0.413 | 0.31 | 0.396 | 0.419 | 0.511 | 0.352 | 0.673 | 0.523 | 0.563 | 0.778 | 0.477 | 0.784 | 0.604 | 0.775 |
| NCI-H322M | 0.95 | 0.921 | 0.942 | 1.05 | 0.923 | 0.525 | 0.525 | 0.544 | 0.595 | 0.595 | 0.591 | 0.444 | 0.535 | 0.585 | 0.533 | 0.798 | 0.739 | 0.752 | 0.783 | 0.824 |
| NCI-H358 | 0.888 | 0.834 | 1.06 | 0.939 | 0.933 | 0.138 | 0.126 | 0.153 | 0.14 | 0.124 | 0.842 | 0.745 | 0.863 | 0.799 | 0.685 | 0.328 | 0.338 | 0.367 | 0.345 | 0.303 |
| NCI-H1299 | 1.01 | 0.976 | 0.964 | 0.979 | 0.956 | – | – | – | – | – | – | – | – | – | – | – | – | – | – | – |
| NCI-H1563 | 0.992 | 0.887 | 0.959 | 0.896 | 0.882 | – | – | – | – | – | 0.735 | 0.796 | 0.763 | 0.701 | 0.699 | 0.672 | 0.64 | 0.675 | 0.677 | 0.685 |
| NCI-H1648 | 1.2 | 0.735 | 0.954 | 1.02 | 1.43 | 0.545 | – | 0.44 | 0.4 | 0.607 | 0.273 | 0.29 | 0.242 | 0.23 | 0.255 | – | – | – | – | – |
| NCI-H1703 | 0.929 | 0.707 | 0.939 | 0.776 | 0.657 | – | – | – | – | – | – | – | – | – | – | – | – | – | – | – |
